± gives the standard deviation of the averaged measurements.

In the first data set the test system is McpC ligand-binding domain (Salmonella Typhimurium SL1344). Description: protein melting temperature (Tm) in presence of compound (degrees C); higher = more thermal stabilisation (possible ligand binding). The conditions noted are these: Biolog plate: PM01; compound stock concentration: 10-20 mM, 2 uL in 10 uL reaction.
In the case of `CCC(=O)O` [Propionic acid], the protein melting temperature turned out to be 44.9.
On the same count and under the same terms, the same measure for `CC(=O)C(=O)O` [Pyruvic acid]: 44.9; for `O=C(O)CCC(=O)O` [Succinic acid]: 44.5; for `Cc1cn([C@H]2C[C@H](O)[C@@H](CO)O2)c(=O)[nH]c1=O` [Thymidine]: 44.6.
Same read-out and setting: the same measure for `O=C(O)CC(CC(=O)O)C(=O)O` [Tricarballylic acid]: 44.3; for `CCCCCCCC/C=C\CCCCCCCC(=O)OCCOCC(OCCO)C1OCC(OCCO)C1OCCO` (stereo unspecified) [Tween 80]: 45.3.

Staying with this data set, now noted: Biolog plate: PM02A; compound stock concentration: 10-20 mM, 2 uL in 10 uL reaction.
`CC(=O)N[C@H]1[C@H]([C@H](O)[C@H](O)CO)OC(O)(C(=O)O)C[C@@H]1O` (stereo partly specified) [N-Acetyl-Neuraminic acid]: the protein melting temperature is 44.4.
The same measure, in the same setting: the same measure for `O=C(CO)[C@@H](O)[C@H](O)[C@H](O)CO[C@H]1O[C@H](CO)[C@@H](O)[C@H](O)[C@H]1O` [Palatinose]: 44; for `O=C(O)[C@H]1O[C@@H](O)[C@H](O)[C@@H](O)[C@H]1O` [Pectin]: 45.
On the same count and under the same terms, the value for `NCCCCN` [Putrescine] was 43.7; that for `O=C(O)[C@]1(O)C[C@@H](O)[C@@H](O)[C@H](O)C1` [Quinic acid] was 44.2.
As for `O=C(O)CCCCCCCCC(=O)O` [Sebacic acid], the protein melting temperature was found to be 44.8.
For the compound `OC[C@@]12OC[C@@H](O1)[C@@H](O)[C@@H](O)[C@@H]2O` [Sedoheptulosan], the protein melting temperature is 44.3.
As to `C/C=C/C=C/C(=O)O` [Sorbic acid], the protein melting temperature amounted to 44.
Turning to `OC[C@H]1O[C@H](OC[C@H]2O[C@H](OC[C@H]3O[C@H](O[C@]4(CO)O[C@H](CO)[C@@H](O)[C@@H]4O)[C@H](O)[C@@H](O)[C@@H]3O)[C@H](O)[C@@H](O)[C@H]2O)[C@H](O)[C@@H](O)[C@H]1O` [Stachyose], the protein melting temperature turned out to be 44.5.
Same read-out and setting: the same measure for `NC(=O)CCC(=O)O` [Succinamic acid]: 43.6; for `O=C(CO)[C@@H](O[C@H]1O[C@H](CO)[C@@H](O)[C@H](O)[C@H]1O)[C@H](O)[C@H](O)CO` [Turanose]: 44.1.

The data set is the same for the next values; noted with them: Biolog plate: PM03B; compound stock concentration: 10-20 mM, 2 uL in 10 uL reaction.
`CCCCCN` [N-Amylamine]: the protein melting temperature was 44.9.
The same measure, in the same setting: the same measure for `CCCCN` [N-Butylamine]: 45.3; for `O=C(O)CC[C@@H](C(=O)O)N1C(=O)c2ccccc2C1=O` [N-Phthaloyl-L-Glutamic acid]: 44.9; for `O=[N+]([O-])O` [Nitrate]: 46.
For the compound `O=NO` [Nitrite], the protein melting temperature was 46.
The same measure, in the same setting: the same measure for `O=C1NC(=O)C(=O)N1` [Parabanic acid]: 44; for `NCCCCN` [Putrescine]: 44.
For `Cc1cn([C@H]2C[C@H](O)[C@@H](CO)O2)c(=O)[nH]c1=O` [Thymidine], the protein melting temperature came to 45.1.
The same measure, in the same setting: the value for `Cc1c[nH]c(=O)[nH]c1=O` [Thymine] was 45.1.

The data set is the same for the next values; noted with them: Biolog plate: PM04A; compound stock concentration: 10-20 mM, 2 uL in 10 uL reaction.
For `CC(=O)N[C@@H](CS)C(=O)O` [N-Acetyl-L-Cysteine], the protein melting temperature came out at 43.7.
Same read-out and setting: the value for `N[C@H](COP(=O)(O)O)C(=O)O` [O-Phospho-D-Serine] was 43.9.
Same read-out and setting: the value for `N[C@H](Cc1ccc(OP(=O)(O)O)cc1)C(=O)O` [O-Phospho-D-Tyrosine] was 43.7; that for `N[C@@H](COP(=O)(O)O)C(=O)O` [O-Phospho-L-Serine] was 43.9.
On to `C[C@@H](OP(=O)(O)O)[C@H](N)C(=O)O` [O-Phospho-L-Threonine], for which the protein melting temperature turned out to be 44.
On to `N[C@@H](Cc1ccc(OP(=O)(O)O)cc1)C(=O)O` [O-Phospho-L-Tyrosine], for which the protein melting temperature was determined as 43.7.
On the same count and under the same terms, the same measure for `NCCOP(=O)(O)O` [O-Phosphoryl-Ethanolamine]: 43.9.
Consider `O=C(O)COP(=O)(O)O` [Phospho-Glycolic acid], for which the protein melting temperature came out at 43.5.
Still for that read-out and setting: the same measure for `CN(CC(=O)O)C(=N)NP(=O)(O)O` [Phosphocreatine]: 44.3.
Same read-out and setting: the same measure for `C=C(OP(=O)(O)O)C(=O)O` [Phosphoenol Pyruvate]: 43.9; for `O=C(O)CP(=O)(O)O` [Phosphono Acetic acid]: 44.
Consider `C[N+](C)(C)CCOP(=O)(O)O` [Phosphoryl Choline], for which the protein melting temperature amounted to 43.7.
Still for that read-out and setting: the value for `CSC[C@H](N)C(=O)O` [S-Methyl-L-Cysteine] was 43.7.
On the same count and under the same terms, the same measure for `NCCS(=O)(=O)O` [Taurine]: 44.2; for `C[C@H](CCC(=O)NCCS(=O)(=O)O)[C@H]1CC[C@H]2[C@@H]3[C@H](O)C[C@@H]4C[C@H](O)CC[C@]4(C)[C@H]3C[C@H](O)[C@]12C` [Taurocholic acid]: 44.2.
With `O=S1(=O)CCCC1` [Tetramethylene Sulfone], the protein melting temperature is 44.3.
Turning to `O=S(=O)(O)SSS(=O)(=O)O` [Tetrathionate], the protein melting temperature is 42.7.
With `OP(O)(O)=S` [Thiophosphate], the protein melting temperature was 43.88 ± 0.26.
Same read-out and setting: the value for `O=S(O)(O)=S` [Thiosulfate] was 42.8; that for `NC(N)=S` [Thiourea] was 44.6.
Turning to `Cc1cn([C@H]2C[C@H](OP(=O)(O)O)[C@@H](CO)O2)c(=O)[nH]c1=O` [Thymidine 3`-Monophosphate], the protein melting temperature turned out to be 43.6.
The same measure, in the same setting: the value for `Cc1cn([C@H]2C[C@H](O)[C@@H](COP(=O)(O)O)O2)c(=O)[nH]c1=O` [Thymidine 5`-Monophosphate] was 43.7.
With `CCOP(=O)(OCC)OCC` [Triethyl Phosphate], the protein melting temperature is 44.9.
As to `O=P1(O)OP(=O)(O)OP(=O)(O)O1` [Trimetaphosphate], the protein melting temperature came out at 44.7.

The data set is the same for the next values; noted with them: Biolog plate: PM05; compound stock concentration: 10-20 mM, 2 uL in 10 uL reaction.
Take `NC(=O)c1cccnc1` [Nicotinamide]: the protein melting temperature was found to be 43.7.
The same measure, in the same setting: the value for `O=C(O)c1cc(=O)[nH]c(=O)[nH]1` [Orotic acid] was 43.
On the same count and under the same terms, the value for `O=C(O)CC(=O)C(=O)O` [Oxaloacetic acid] was 43.8.
On to `NCCCCN` [Putrescine], for which the protein melting temperature was 44.1.
Still for that read-out and setting: the value for `Cc1ncc(CO)c(C=O)c1O` [Pyridoxal] was 43.2; that for `Cc1ncc(CO)c(CN)c1O` [Pyridoxamine] was 43.9; that for `Cc1ncc(CO)c(CO)c1O` [Pyridoxine] was 43.8.
Turning to `O=C(O)c1cc(C(=O)O)c2c(n1)C(=O)C(=O)c1cc(C(=O)O)[nH]c1-2` [Pyrrolo-Quinoline Quinone], the protein melting temperature came out at 43.
As to `O=C(O)c1cccnc1C(=O)O` [Quinolinic acid], the protein melting temperature stood at 43.8.
On the same count and under the same terms, the value for `Cc1cc2nc3c(=O)[nH]c(=O)nc-3n(C[C@H](O)[C@H](O)[C@H](O)CO)c2cc1C` [Riboflavin] was 43.6.
On to `NCCCCNCCCN` [Spermidine], for which the protein melting temperature turned out to be 41.1.
Take `NCCCNCCCCNCCCN` [Spermine]: the protein melting temperature is 43.8.
As to `Cc1ncc(C[n+]2csc(CCOP(=O)(O)OP(=O)(O)O)c2C)c(N)n1` [Thiamine Pyrophosphate], the protein melting temperature turned out to be 43.7.
On to `Cc1cn([C@H]2C[C@H](O)[C@@H](CO)O2)c(=O)[nH]c1=O` [Thymidine], for which the protein melting temperature is 44.7.
The same measure, in the same setting: the value for `Cc1c[nH]c(=O)[nH]c1=O` [Thymine] was 43.
For `CCCCCCCC/C=C\CCCCCCCC(=O)OCCOCC(OCCO)C1OCC(OCCO)C1OCCO` (stereo unspecified) [Tween 80], the protein melting temperature is 43.9.

The values are drawn from the supplement of paper PMC7806825.
